Several values for one entry are separate records, joined by “and”; a condition that tells them apart may be missing. Equal entries are not always repeated. Where two headings read alike, the source gives them in different places.
Key:
[1] = system: human costimulatory molecule CD80 (hCD80); set-up: method as in Taddio et al., in preparation; settings: ref Taddio et al., in preparation; cited from earlier work
[2] = cited from earlier work
[3] = Plasma kinetics: biexponential fit of image-derived CPlasma(t) from dynamic PET; assay type: in vivo, mice
Method: (§1) For PET/CT acquisition, mice were anaesthetized with 3 to 5% isoflurane in air/oxygen (1 : 1), at a respiratory rate of ~60 per min as described elsewhere. Cyclosporine (50 mg/kg), to inhibit cyclosporine-sensitive transporters, was injected into a tail vein (i.v.), 30 to 50 min before tracer injection while the respective tracer was synthesized. The injected cyclosporine solution was a dilution with water for injection (1 : 1) of Sandimmun® (Novartis Pharmaceuticals, Basel, Switzerland; 50 mg/ml cyclosporine in 26.1% ethanol/65% PEG-35 castor oil). Vehicle (13% ethanol, 2 ml/kg) was injected as a control as indicated. Immediately after radiosynthesis quality control, the tracer was injected i.v. at a dose between 3 and 14 MBq (<20 nmol/kg) in 100 to 200 μL saline containing 5% ethanol. Injections lasted ~10 s. The mouse was transferred to a SuperArgus PET/CT scanner (Sedecal, Madrid, Spain, formerly Vista eXplore) with an axial field of view of 4.8 cm and a spatial resolution of 1.6–1.7 mm (full width at half maximum; [23]). Body temperature and respiratory rate were controlled as previously described. The PET scan was started in List mode 60 s after tracer injection. After 60 min scan duration, computed tomography (CT) data were recorded for anatomical orientation.
The blood C(t) was generated with PMOD from the PET images as follows. A cropped cube of 10 × 10 × 10 mm^3 including the image data of the heart was divided into 12 segments with differing kinetics, using the PSEG module of PMOD. C(t) of the segment covering the left heart ventricle according to the PET (first time frame)/CT images was used as an estimation of the blood C(t) (CBlood(t)). CBlood(t) was divided by (1 − hematocrit) to get CPlasma(t) and fitted to a biexponential infusion function as shown in (1) CPlasmat=A0/T×V1×λ1×V1/Vz−λ1/λ1λz−λ1×1−e^−λ1×tt≤T+Tt>T×e^−λ1×t−Tt>T+λ1×V1/Vz−λz/λzλ1−λz×1−e^−λz×tt≤T+Tt>T×e^−λz×t−Tt>T, where A(0) is the radioactivity dose, T is the duration of the injection (10 s infusion), V1 is the volume of the central compartment (initial volume of distribution of the tracer after injection), Vz is the volume of distribution during the terminal phase, and λ1 and λz are the respective rate constants of the biexponential function and t the time. The term [t(t ≤ T) + T(t > T)] equals t if t ≤ T but T if t > T. The term (t − T)(t > T) equals t − T if t > T, otherwise zero. The hematocrit was assumed 0.44 [25, 26].
Total CL was calculated as the sum of CLH and CLR and compared to the CL estimated from the CPlasma(t) biexponential fits (see (1)), as CL = λz × Vz. The extraction ratio EH for liver was estimated as ratio between CLH and QP,H, with QP,H from Davies and Morris.

[4] = system: hCD80-positive xenografts; set-up: method as in PMID 24834996; settings: previous work; cited from earlier work
[5] = set-up: method as in PMID 24834996; settings: cited from earlier work
[6] = set-up: method as in PMID 24834996; settings: 30 min after administration; cited from earlier work
[7] = In vivo PBPK compartment modelling of dynamic whole-body PET data; set-up: species or system mice; settings: for average CLH when kBG was fitted / calculated transintestinal clearance: kBG fitted
Source text: C(t) of liver, kidneys, and peripheral tissue and A(t) of gallbladder and intestines were derived from manually drawn volumes of interest according to the PET/CT images, using the VOI functions of PMOD. Regions of interest are shown for a representative scan in Supplementary Figure 1. C(t) data were transformed to A(t) by multiplication with the reported average volume of the respective organ or tissue. These were 0.065 cm^3 per g BW for liver and 0.0164 cm^3 per g BW for kidneys. The volume of the “peripheral tissue” (VTissue) with C(t) determined from the left shoulder was estimated during the fitting procedure. It was 0.74 ± 0.08 cm^3 per g BW for [^11C]MT107 control scans and 0.79 ± 0.10 cm^3/g for [^11C]MT107 scans after cyclosporine treatment, without significant difference (p = 0.47).
A(t) of the individual regions of interest were fitted with custom-written MATLAB scripts (MathWorks, Natick, MA) according to the compartment model shown in Figure 2, using the ode45 function to solve the differential equation system. Tracer input was simulated as a constant input of duration T (A(0)/T). Fitting was performed with the solver fmincon and the function MultiStart with 128 random sets of bounded initial parameters. Calculations were performed by parallel computing on 40 cores of the Euler cluster of ETH Zurich (https://scicomp.ethz.ch/). The initial parameters were best guesses from supervised simulations. Initial lower bounds were 0 for the rate constants of mass transfer (k). For k from plasma to liver and kidneys, the initial upper bounds were set according to the reported values for blood flow, corrected for (1 − hematocrit) to get the plasma flow (QP) divided by the plasma volume (VPlasma = vBlood × (1 − hematocrit) × BW). The QP for liver (QP,H) was 1.0 ml/min and for kidneys (QP,R) 0.73 ml/min.
Figure 2 Model for the pharmacokinetic analysis. A(0) is the dose, and T is the infusion duration (10 s). Initial A(t = 0) for all compartments (indicated by black boxes) were zero. The parameters k are mass transfer rate constants with the unit 1/time. The indices denote the source and target compartments, respectively (e.g., kBH1, k for the mass transfer from blood plasma to hepatic compartment “Liver 1”). A(t) of peripheral tissue was best fit with two sets of rate constants for reversible transfer. The sum of the two plasma-to-tissue rate constants is kBT. Several models were evaluated and the results were visually inspected. […] For [^11C]MT107 scans, kBG (grey arrow) was set to 0. Tissue blood fractions (vBlood multiplied with the organ or tissue volume and CBlood(t)) were added to the compartments where applicable. B, blood plasma; G, gallbladder plus intestine combined; H, liver; R, kidneys; T, peripheral tissue; U, urine.
During the fitting procedure, the sum of weighted squared residuals of all A(t) was minimized. For weighting, the residuals of the first two data points of plasma, liver, and kidney were multiplied with 5, to force the fits through these initial data points. After several rounds, the best estimates with the lowest sum of squared residuals were used per tracer to define the final upper and lower bounds as 0.5-fold the minimal respective fit parameter and 2-fold the highest respective fit parameter per tracer. […] Under these refined conditions, one calculation (one scan) with 128 random sets of initial values required 10–120 min.
CLH was calculated according to (2) CLH=kBH1×kH1H2/kH1B+kH1H2×VPlasma, where the rate constants k are defined in the model in Figure 2. Note that at steady state this equals CLH calculated from kH2G.
The term 1/(1 + kR1R2/kR2R1) corrects for the mass ratio between R1 and the combined R1 and R2.
Total CL was calculated as the sum of CLH and CLR and compared to the CL estimated from the CPlasma(t) biexponential fits (see (1)), as CL = λz × Vz. […]

[8] = PET images: radioactivity distribution; assay type: in vivo, mice; settings: for radioactivity distribution in PET images: control conditions; for change of radioactivity distribution in PET images: cyclosporine 50 mg/kg i.v. before tracer, compared to scans without cyclosporine
Method: as §1
The PET data were reconstructed into 10 or 12 time frames by 2D Fourier rebinning/ordered-subsets expectation maximization (FORE/OSEM), 2 iterations, and 16 subsets, correcting for singles and randoms but not attenuation. Images were generated with the software PMOD v3.8 (PMOD, Zurich, Switzerland). All radioactivities were decay-corrected to the time point of tracer injection.

[9] = after cyclosporine 50 mg/kg i.v.
[10] = after cyclosporine 50 mg/kg i.v., 30 to 50 min before tracer
[11] = control, tracer i.v., 60 min PET scan
[12] = control, for [11C]AM7 CLH includes kBG × VPlasma, for [11C]MT107 kBG = 0
[13] = cyclosporine 50 mg/kg i.v. versus control

SMILES	affinity to hCD80 [1]	Vz, volume of distribution during the terminal phase [3, 9] [mL]	λ1 rate constant of biexponential function [3, 9] [min⁻¹]	λz rate constant of biexponential function [3, 9]	V1, volume of the central compartment [3, 10] [mL]	Vz, volume of distribution during the terminal phase ([3]; control)	λ1 rate constant of biexponential function ([3]; control)	λz rate constant of biexponential function ([3]; control)	V1, volume of the central compartment [3, 11]	CLR, renal clearance ([7]; control)	DTissue, distribution coefficient between tissue and plasma at equilibrium ([7]; control)	CLH, hepatobiliary clearance [7, 12]	radioactivity distribution in PET images [8]	change of radioactivity distribution in PET images [8]	other results
[11CH3]N1CCC(NC(=O)c2ccc(-n3[nH]c4c(nnc5c(F)cccc54)c3=O)cc2)CC1 [[^11C]AM7]	low nanomolar range	8.0	0.204	0.0206 min⁻¹	4.2	10.3 mL and 9.4 mL	0.196 min⁻¹ and 0.295 min⁻¹	0.0234 min⁻¹ and 0.0270 min⁻¹	3.0 mL and 2.3 mL	161 µL/min and 179 µL/min	0.11 and 0.12	103 µL/min and 120 µL/min	accumulated in the liver, gallbladder, intestines, and the urinary bladder	increased in kidneys and peripheral tissue and reduced in liver, gallbladder, and intestines	logD (pH 7.4) [2]: 0.1; accumulation in hCD80-positive xenografts [4]: negligible; unbound fraction in plasma (fu) [5]: 0.02; radiometabolites in blood plasma [6]: No radiometabolites were detected
[11CH3]N1CCC(NC(=O)c2ccc(-n3[nH]c4c(c(-c5cccc(C(F)(F)F)c5)nc5c(F)cccc54)c3=O)cc2)CC1 [[^11C]MT107]	low nanomolar range	3.33 ± 0.80	0.139 ± 0.021	0.0140 ± 0.0034^∗∗b 1/min	1.38 ± 0.11	2.66 ± 0.51 mL	0.121 ± 0.011 min⁻¹	0.0210 ± 0.0011 min⁻¹	1.49 ± 0.19 mL	11.9 ± 5.3 µL/min	0.10 ± 0.02	35.2 ± 10.9 µL/min	higher tissue radioactivity compared to [^11C]AM7 but still high abdominal radioactivity accumulation	increased radioactivity uptake in the kidneys and peripheral tissue and reduction in the liver	logD (pH 7.4) ([2]; ref Taddio et al., in preparation): 2.0; increase of Vz after cyclosporine administration ([3]; not significant (p = 0.21)): 1.25 fold; kGH1, rate constant of reabsorption from intestines into liver compartment H1 ([7]; absence of cyclosporine): 0.0077 ± 0.0033 min⁻¹; CLR, renal clearance [7, 9]: 19.9 ± 5.1 µL/min; DTissue, distribution coefficient between tissue and plasma at equilibrium [7, 9]: 0.14 ± 0.03; CLH, hepatobiliary clearance ([7]; after cyclosporine 50 mg/kg i.v., kBG = 0): 17.1 ± 5.6 µl/min and 17.1 ± 5.6^∗b µl/min; average CLH when kBG was fitted ([7]; after cyclosporine administration): 9.3 ± 4.2 µL/min; increase of CLR after cyclosporine administration ([7]; average, not significant (p = 0.069)): 1.7 fold; EH, extraction ratio for liver (CLH/QP,H) ([7]; control): 0.035 ± 0.011; total CL from modelling lower than from biexponential fit of CPlasma(t) ([7]; control group): 16%; VTissue, volume of the peripheral tissue estimated during fitting ([7]; control scans): 0.74 ± 0.08 cm^3 per g BW; average CLH when kBG was fitted ([7]; control): 25.4 ± 6 µL/min; calculated transintestinal clearance ([7]; control): 10.5 ± 11.3 µL/min; CLH after cyclosporine relative to value in the absence of cyclosporine [7, 13]: 48%; EH after cyclosporine relative to value in the absence of cyclosporine [7, 13]: 48%; total CL from modelling lower than from biexponential fit of CPlasma(t) ([7]; cyclosporine group): 17%; calculated transintestinal clearance ([7]; cyclosporine group): 7.8 ± 4.1 µL/min; increase of average DTissue after cyclosporine administration (factor) ([7]; not significant (p = 0.078)): 1.34; kGH1, rate constant of reabsorption from intestines into liver compartment H1 ([7]; presence of cyclosporine): 0.0080 ± 0.0038 min⁻¹; VTissue, volume of the peripheral tissue estimated during fitting ([7]; scans after cyclosporine treatment): 0.79 ± 0.10 cm^3/g
